pIC50: −log10 of the molar value.
Legend:
[1] = system: mono-methyl arginine in RKO cells; experiment: RKO methylation assay, In Cell Western for mono-methyl arginine and DNA content; format: cell-based; details: Homo sapiens; In Cell Western, RKO cells, 72 hours, percent activation of mono-methyl arginine signal; read-out: EC30
From the text: RKO adherent cells were purchased from ATCC (American Type Culture Collection), Manassas, Va., USA. DMEM/Glutamax medium, penicillin-streptomycin, heat inactivated fetal bovine serum, 0.05% trypsin and D-PBS were purchased from Life Technologies, Grand Island, N.Y., USA. Odyssey blocking buffer, 800CW goat anti-rabbit IgG (H+L) antibody, and Licor Odyssey infrared scanner were purchased from Licor Biosciences, Lincoln, Nebr., USA. Mono-methyl arginine antibody was purchased from Cell Signaling Technology, Danvers, Mass., USA. Methanol was purchased from VWR, Franklin, Mass., USA. 10% Tween 20 was purchased from KPL, Inc., Gaithersburg, Md., USA. […] was purchased from Biostatus Limited, Leicestershire, UK.
RKO adherent cells were maintained in growth medium (DMEM/Glutamax medium supplemented with 10% v/v heat inactivated fetal bovine serum and 100 units/mL penicillin-streptomycin) and cultured at 37° C. under 5% CO2
Cell Treatment, in Cell Western (ICW) for Detection of Mono-Methyl Arginine and DNA Content. […] Compound (100 nL) from a 96-well source plate was added directly to 384 well cell plate. Plates were incubated at 37° C., 5% CO2 for 72 hours. After three days of incubation, plates were brought to room temperature outside of the incubator for ten minutes and blotted on paper towels to remove cell media. 50 μL of ice cold 100% methanol was added directly to each well and incubated for 30 min at room temperature. After 30 min, plates were transferred to a Biotek EL406 plate washer and washed 2 times with 100 μL per well of wash buffer (1×PBS). Next 60 μL per well of Odyssey blocking buffer (Odyssey Buffer with 0.1% Tween 20 (v/v)) were added to each plate and incubated 1 hour at room temperature. Blocking buffer was removed and 20 μL per well of primary antibody was added (mono-methyl arginine diluted 1:200 in Odyssey buffer with 0.1% Tween 20 (v/v)) and plates were incubated overnight (16 hours) at 4° C. Plates were washed 5 times with 100 μL per well of wash buffer. […] The plates were washed 5 times with 100 μL per well wash buffer then 2 times with 100 μL per well of water. Plates were allowed to dry at room temperature then imaged on the Licor Odyssey machine which measures integrated intensity at 700 nm and 800 nm wavelengths. Both 700 and 800 channels were scanned.
Calculations: First, the ratio for each well was determined by:
Each plate included fourteen control wells of DMSO only treatment (minimum activation) as well as fourteen control wells for maximum activation treated with 20 μM of a reference compound. The average of the ratio values for each control type was calculated and used to determine the percent activation for each test well in the plate. Reference compound was serially diluted three-fold in DMSO for a total of nine test concentrations, beginning at 20 μM. Percent activation was determined and EC30 curves were generated using triplicate wells per concentration of compound.

Full-length human PRMT6 = target: T1, Full-length human PRMT6 (Homo sapiens, UniProt Q96LA8); experiment: PRMT6 biochemical assay (3H-SAM Flashplate, peptide substrate)
T1 construct: Flag-PRMT6-His was eluted with 200 ug/ml FLAG peptide in the same buffer; made in house; host or cells: HEK 293F cells (BacMam virus, pFastBacMam)
T1 sequence (Q96LA8 with tags, fused parts or gaps): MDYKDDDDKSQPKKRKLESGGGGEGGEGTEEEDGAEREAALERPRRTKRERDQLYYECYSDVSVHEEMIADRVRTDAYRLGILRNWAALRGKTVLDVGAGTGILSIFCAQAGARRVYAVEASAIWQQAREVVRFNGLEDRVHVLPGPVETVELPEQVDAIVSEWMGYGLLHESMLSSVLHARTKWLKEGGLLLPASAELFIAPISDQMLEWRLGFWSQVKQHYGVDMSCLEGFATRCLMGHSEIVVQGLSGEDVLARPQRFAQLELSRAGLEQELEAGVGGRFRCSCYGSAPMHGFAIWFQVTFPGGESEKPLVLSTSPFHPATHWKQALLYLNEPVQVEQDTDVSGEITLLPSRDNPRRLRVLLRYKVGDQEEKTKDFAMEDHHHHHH
From the text: (§1) General Materials. S-adenosylmethionine (SAM), S-adenosylhomocysteine (SAH), bicine, Tween20, dimethylsulfoxide (DMSO), bovine skin gelatin (BSG), sodium butyrate and Tris(2-carboxyethyl)phosphine hydrochloride solution (TCEP) were purchased from Sigma-Aldrich at the highest level of purity possible. ^3H-SAM was purchase from American Radiolabeled Chemicals with a specific activity of 80 Ci/mmol. 384-well streptavidin Flashplates were purchased from PerkinElmer.
Substrates. Peptide representative of human histone H4 residues 36-50 was synthesized with an N-terminal linker-affinity tag motif and a C-terminal amide cap by 21st Century Biochemicals.
The amplified gene was subcloned into pFastBacMam (Viva Biotech).
Protein Expression. Recombinant baculovirus were generated according to Bac-to-Bac kit instructions (Life Technologies). […] Infections were carried out at 37° C. for 48 hours, harvested by centrifugation, and stored at −80° C. for purification.
Protein Purification. […] Column was washed with 20 mM imidazole in the same buffer and Flag-PRMT6-His was eluted with 150 mM imidazole. Pooled fractions were dialysed against buffer Ni-A and further purified by anti-flag M2 affinity chromatography. Flag-PRMT6-His was eluted with 200 ug/ml FLAG peptide in the same buffer. Pooled fractions were dialysed in 20 mM Tris, 150 mM NaCl, 10% glycerol and 5 mM β-mercaptoethanol, pH 7.8.
(§2) General Procedure for PRMT6 Enzyme Assays on Peptide Substrates. The assays were all performed in a buffer consisting of 20 mM Bicine (pH=7.6), 1 mM TCEP, 0.005% BSG, and 0.002% Tween 20, prepared on the day of use. […] DMSO (1 ul) was added to Columns 11, 12, 23, 24, rows A-H for the maximum signal control and 1 ul of SAH, a known product and inhibitor of PRMT6, was added to columns 11, 12, 23, 24, rows I-P for the minimum signal control. A cocktail (40 ul) containing the PRMT6 enzyme was added by Multidrop Combi (Thermo-Fisher). The compounds were allowed to incubate with PRMT6 for 30 min at room temperature, then a cocktail (10 ul) containing SAM and peptide was added to initiate the reaction (final volume=51 ul). […] The assays were stopped by the addition of non-radiolabeled SAM (10 ul) to a final concentration of 400 uM, which dilutes the ^3H-SAM to a level where its incorporation into the peptide substrate is no longer detectable. 50 ul of the reaction in the 384-well polypropylene plate was then transferred to a 384-well Flashplate and the biotinylated peptides were allowed to bind to the streptavidin surface for at least 1 hour before being washed once with 0.1% Tween20 in a Biotek ELx405 plate washer. The plates were then read in a PerkinElmer TopCount plate reader to measure the quantity of ^3H-labeled peptide bound to the Flashplate surface, measured as disintegrations per minute (dpm) or alternatively, referred to as counts per minute (cpm).
(§3) Where dpm=disintegrations per minute, cmpd=signal in assay well, and min and max are the respective minimum and maximum signal controls.
(§4) Where top and bottom are the normally allowed to float, but may be fixed at 100 or 0 respectively in a 3-parameter fit. The Hill Coefficient normally allowed to float but may also be fixed at 1 in a 3-parameter fit. Y is the % inhibition and X is the compound concentration.

[2] = target: T2, Full-length human PRMT1 isoform 1 (Homo sapiens, UniProt Q99873); experiment: PRMT1 biochemical assay (3H-SAM Flashplate, peptide substrate)
T2 construct: GST-tagged PRMT1; made in house; host or cells: High Five insect cells (baculovirus, pFastBacI)
T2 sequence (Q99873 with tags, fused parts or gaps): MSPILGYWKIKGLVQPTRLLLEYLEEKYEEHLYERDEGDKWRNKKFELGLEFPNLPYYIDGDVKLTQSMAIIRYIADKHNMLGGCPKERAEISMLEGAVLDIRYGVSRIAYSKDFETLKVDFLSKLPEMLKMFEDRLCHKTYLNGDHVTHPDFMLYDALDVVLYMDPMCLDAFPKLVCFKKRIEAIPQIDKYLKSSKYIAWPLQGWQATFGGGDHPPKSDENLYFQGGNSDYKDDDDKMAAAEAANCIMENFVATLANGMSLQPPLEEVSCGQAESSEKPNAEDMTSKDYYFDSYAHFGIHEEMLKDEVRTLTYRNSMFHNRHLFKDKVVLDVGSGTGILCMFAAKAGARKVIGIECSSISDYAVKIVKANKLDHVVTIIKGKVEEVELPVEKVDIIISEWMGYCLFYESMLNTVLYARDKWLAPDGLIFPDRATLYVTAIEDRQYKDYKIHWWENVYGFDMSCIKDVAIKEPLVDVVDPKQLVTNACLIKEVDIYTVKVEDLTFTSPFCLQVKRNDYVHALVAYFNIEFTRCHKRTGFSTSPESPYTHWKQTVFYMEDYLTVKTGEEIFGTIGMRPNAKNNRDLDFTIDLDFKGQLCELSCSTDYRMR
From the text: as §1, with “(BSG),” for “(BSG), sodium butyrate”
Protein Expression. Recombinant baculovirus were generated according to Bac-to-Bac kit instructions (Life Technologies). […] Infections were carried out at 27° C. for 48 hours, harvested by centrifugation, and stored at −80° C. for purification.
Protein Purification. […] GST-tagged PRMT1 was eluted with 50 mM Tris, 2 mM glutathione, pH 7.8, dialysed in buffer A and concentrated to 1 mg/mL.
as §2, with “PRMT1” for “PRMT6”, “PRMT1,” for “PRMT6,”, “300” for “400”
as §3, §4

SMILES | EC30 [1] [µM] | pIC50 (Full-length human PRMT6) | pIC50 [2]
CNCCN(C)Cc1c[nH]nc1-c1ccc(OC(C)C)cc1 [Compound 19, N^1-((3-(4-isopropoxyphenyl)-1H-pyrazol-4-yl)methyl)-N^1,N^2-dimethylethane-1,2-diamine] | < 3 | > 7.00 | 
CNCCN(C)Cc1c[nH]nc1-c1ccc(OC2CCOCC2)cc1 [Compound 175] | < 3 | > 7.00 | > 7.00
CC(C)Oc1ccc(-c2nn(C)cc2CN(C)CCN)cc1 [Compound 176] | < 3 | > 7.00 | > 7.00
CC(C)Oc1ccc(-c2c(CN(C)CCN)cnn2C)cc1 [Compound 177] | < 3 | > 7.00 | > 7.00
CN(CCN)Cc1c[nH]nc1-c1ccc(OC2CCOCC2)cc1 [Compound 178] | < 3 | > 7.00 | > 7.00
COCCCOc1ccc(-c2n[nH]cc2CN(C)CCN)cc1 [Compound 179] | < 3 | > 7.00 | > 7.00
CNCCN(C)Cc1c[nH]nc1-c1ccc(OC(C)C)c(F)c1 [Compound 181] | > 12 | > 7.00 | > 7.00
CN(CCN)Cc1c[nH]nc1-c1ccc(OCCCN2CCOCC2)cc1 [Compound 186] | > 12 | > 7.00 | 
CN(CCN)Cc1c[nH]nc1-c1ccc(N2CCN(C(=O)Cc3ccccc3)CC2)cc1 [Compound 190] | 3.01 to 12 | > 7.00 | 
CN(CCN)Cc1c[nH]nc1-c1ccc(Oc2ccccc2)cc1 [Compound 200] | < 3 |  | 
CNCCN(C)Cc1cn[nH]c1-c1ccc(OC(C)C)c(Cl)c1 [Compound 201] | < 3 | > 7.00 | 
CNCCN(C)Cc1cnn(C)c1-c1ccc(OC(C)C)c(Cl)c1 [Compound 220, N^1-((5-(3-chloro-4-isopropoxyphenyl)-1-methyl-1H-pyrazol-4-yl)methyl)-N^1,N^2-dimethylethane-1,2-diamine] | < 3 | > 7.00 | 
COCCn1cnc(-c2ccc(C#N)cc2)c1CN(C)CCN [Compound 223] | > 12 |  | < 5.00
CNCCN(C)Cc1c[nH]nc1-c1cc(C(C)C)cc(C(C)C)c1 [Compound 229, N^1-((3-(3,5-diisopropylphenyl)-1H-pyrazol-4-yl)methyl)-N^1,N^2-dimethylethane-1,2-diamine] | 3.01 to 12 | 6.00 to 7.00 | > 7.00
CNCCN(C)Cc1c[nH]nc1-c1ccc(Oc2cccc(OC)c2)cc1 [Compound 230] | < 3 | > 7.00 | > 7.00
CNCCN(C)Cc1c[nH]nc1-c1ccc(Oc2cccc(F)c2)cc1 [Compound 231] | < 3 | > 7.00 | > 7.00
CNCCN(C)Cc1c[nH]nc1-c1ccc(Oc2ccccc2)c(C(=O)NC)c1 [Compound 232] | 3.01 to 12 | > 7.00 | > 7.00
CNCCN(C)Cc1c[nH]nc1-c1ccc(Oc2ccccc2)c(C(=O)N(C)C)c1 [Compound 233] | > 12 | > 7.00 | > 7.00
CNCCN(C)Cc1n[nH]cc1-c1ccc(Oc2ccccc2)c(C#N)c1 [Compound 234] | < 3 | > 7.00 | > 7.00
CC(C)Cc1cccc(-c2n[nH]cc2CN(C)CCN)c1 [Compound 235] | < 3 | 6.00 to 7.00 | > 7.00
CNCCN(C)Cc1c[nH]nc1-c1ccc(OCCCO)cc1 [Compound 236] | < 3 | > 7.00 | > 7.00
CNCCN(C)Cc1c[nH]nc1-c1ccc(Oc2ccccc2F)cc1 [Compound 237] | < 3 | > 7.00 | > 7.00
CNCCN(C)Cc1c[nH]nc1-c1ccc(Oc2cccc(C(=O)N(C)C)c2)cc1 [Compound 264] | 3.01 to 12 | > 7.00 | 
CNCCN(C)Cc1n[nH]cc1-c1ccc(Oc2cccc(C(=O)N(C)C)c2)cc1 [Compound 269] | > 12 | > 7.00 | 
CNCCN(C)Cc1n[nH]cc1-c1ccc(Oc2ccccc2C(=O)NC)cc1 [Compound 278] | 3.01 to 12 | > 7.00 | 

Source: patent US9346761B2, “Arginine methyltransferase inhibitors and uses thereof” (Epizyme, Inc., priority 2013, dated 2016)
